Measurements: patent publication US4593104A, “2-halo-N-(azole-1-yl-methyl)-substituted acetanilides” (BASF Aktiengesellschaft, priority 1976, dated 1986)

Assays:
[1] = test system: Beta vulg.; assay: Table 13, % damage; type: in vivo, Beta vulgaris
Description: (§1) The vessels employed were plastic flowerpots having a volume of 300 cm^3; the substrate was a sandy loam containing about 1.5% humus. The seeds of the test plants (see Table 1) were sown shallow, and separated according to species. In the case of Cyperus esculentus, pregerminated tubers were planted. In the preemergence treatment, the active ingredients were then immediately applied to the surface of the soil. They were suspended or emulsified in water as the vehicle, and sprayed through atomizing nozzles. After the agents had been applied, the vessels were lightly sprinkler-irrigated to set germination and growth going, and to activate the chemical agents. The vessels were then covered with transparent plastic hoods until the plants had taken root. This cover ensured uniform germination of the test plants (to the extent that this was not impaired by the chemicals), and prevented readily volatile substances from evaporating.
(§2) For postemergence treatment, the plants were first grown to a height of from 3 to 10 cm, depending on their habit, before treated. Hoods were not placed on the pots. The experiments were set up in the greenhouse, hotter areas (25° to 40° C.) being preferred for heat-loving species, and 15° to 30° C. for plants from moderate climates. The experiments were carried out for from 4 to 6 weeks. During this period the plants were tended and their reaction to the various treatments was assessed. The following tables contain the substances investigated, the application rates in kg/ha of active ingredient, and the test plant species. Assessments were made on a 0 to 100 scale, 0 denoting no damage or normal emergence, and 100 denoting no emergence or complete destruction of at least the visible plant parts.

[2] = test system: Alopec. myosur.; assay: Table 13, % damage; type: in vivo
Description: as §1, §2

[3] = test system: Echin c.g.; assay: Table 13, % damage; type: in vivo
Description: as §1, §2

[4] = test system: Setar. spp.; assay: Table 13, % damage; type: in vivo
Description: as §1, §2

[5] = test system: Amar. retro.; assay: preemergence treatment in the greenhouse, % damage; type: in vivo
Method in brief: (§3)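 Plants in humus-poor sandy loam (~1.5%) received kg/ha doses of active as aqueous spray. Preemergence sprays preceded irrigation and hooding until rooting; postemergence sprays, without hoods, hit 3–10 cm plants. Injury was assessed 0–100 across 4–6 weeks.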

[6] = test system: Bromus spp.; assay: preemergence treatment in the greenhouse, % damage; type: in vivo; conditions: 0.25 kg/ha
Method in brief: as §3

[7] = test system: Chrys. seget.; assay: preemergence treatment in the greenhouse, % damage; type: in vivo; conditions: 0.25 kg/ha
Method in brief: as §3

[8] = test system: Euph. gen.; assay: preemergence treatment in the greenhouse, % damage; type: in vivo; conditions: 0.25 kg/ha
Method in brief: as §3

[9] = test system: Poa annua; assay: preemergence treatment in the greenhouse, % damage; type: in vivo; conditions: 0.25 kg/ha
Method in brief: as §3

[10] = test system: Solanum nigrum; assay: preemergence treatment in the greenhouse, % damage; type: in vivo
Method in brief: as §3

[11] = test system: Sorgh. halep.; assay: preemergence treatment in the greenhouse, % damage; type: in vivo
Method in brief: as §3

[12] = test system: Alopec. myosur.; assay: preemergence application in the open, % damage; type: in vivo
Procedure: (§4) The experiments were carried out on small plots. The soil was a sandy loam having a pH of from 5 to 6 and containing from 1 to 1.5% humus. The treatment was preemergence, the active ingredients being applied immediately or at the latest 3 days after sowing. The crop plants were sown in rows. The weed flora was made up of the most widely varying species and was natural; the weed flora depended on the time of the year and in part on the crop (e.g., spring-germinating, summer-germinating). The substances were emulsified or suspended in water as the vehicle, and applied by means of a motor-driven plot spray mounted on a hitch. When no rain fell, the plots were watered to ensure germination and growth of the crop plants and weeds. All the experiments were run for several weeks. Over this period, assessments were made at certain intervals on the 0 to 100 scale.

[13] = test system: Anth./Matric.; assay: preemergence application in the open, % damage; type: in vivo
Procedure: as §4

[14] = test system: Brassica napus; assay: preemergence application in the open, % damage; type: in vivo
Procedure: as §4

[15] = test system: Lamium spp.; assay: preemergence application in the open, % damage; type: in vivo
Procedure: as §4

[16] = test system: Stellaria media; assay: preemergence application in the open, % damage; type: in vivo
Procedure: as §4

[17] = test system: Cyp. diff.; assay: preemergence treatment in the greenhouse, % damage; type: in vivo
Method in brief: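 Preemergence: active sprayed onto the soil surface immediately after sowing; pots sprinkler-irrigated and covered with transparent hoods until plants rooted. Postemergence: unhooded plants sprayed at 3–10 cm. Both run 4–6 weeks in greenhouse; damage 0 = none, 100 = no emergence or total kill of visible parts.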

[18] = test system: Cenchr. ech.; assay: preemergence treatment in the greenhouse, % damage; type: in vivo
Method in brief: as §3

[19] = test system: Echin. c.g.; assay: preemergence treatment in the greenhouse, % damage; type: in vivo
Method in brief: as §3

[20] = test system: Ipom. spp.; assay: preemergence treatment in the greenhouse, % damage; type: in vivo
Method in brief: as §3

[21] = test system: Lept. spp.; assay: preemergence treatment in the greenhouse, % damage; type: in vivo
Method in brief: as §3

[22] = test system: Panic. virg.; assay: preemergence treatment in the greenhouse, % damage; type: in vivo
Method in brief: as §3

[23] = test system: Sida spin.; assay: preemergence treatment in the greenhouse, % damage; type: in vivo
Method in brief: as §3

[24] = test system: Glyc. max; assay: preemergence treatment in the greenhouse, % damage; type: in vivo, Glycine max
Method in brief: as §3

[25] = test system: Gossyp. hirs.; assay: preemergence treatment in the greenhouse, % damage; type: in vivo, Gosspyium hirsutum
Description: as §1, §2

SMILES: Cc1cccc(C)c1N(Cn1cnc(Cl)c1Cl)C(=O)CCl
- % damage ([1]; appl. rate 0.5): 0%
- % damage ([1]; appl. rate 1.0): 0%
- % damage ([2]; appl. rate 0.5): 80%
- % damage ([2]; appl. rate 1.0): 80%
- % damage ([3]; appl. rate 0.5): 100%
- % damage ([3]; appl. rate 1.0): 100%
- % damage ([4]; appl. rate 0.5): 100%
- % damage ([4]; appl. rate 1.0): 100%

SMILES: CCc1cccc(C)c1N(Cn1cccn1)C(=O)CCl [Compound 7]
- % damage ([5]; 0.25 kg/ha): 88%
- % damage [6]: 95%
- % damage [7]: 100%
- % damage [8]: 80%
- % damage [9]: 100%
- % damage ([10]; 0.25 kg/ha): 100%
- % damage ([11]; 0.25 kg/ha): 75%
- % damage ([12]; 0.5 kg/ha): 70%
- % damage ([12]; 1.0 kg/ha): 85%
- % damage ([13]; 0.5 kg/ha): 100%
- % damage ([14]; 0.5 kg/ha): 5%
- % damage ([14]; 1.0 kg/ha): 10%
- % damage ([15]; 0.5 kg/ha): 95%
- % damage ([15]; 1.0 kg/ha): 100%
- % damage ([16]; 0.5 kg/ha): 80%
- % damage ([16]; 1.0 kg/ha): 95%

SMILES: CCc1cccc(C)c1N(Cn1cnc(Cl)c1Cl)C(=O)CCl
- % damage ([1]; appl. rate 0.5): 0%
- % damage ([1]; appl. rate 1.0): 0%
- % damage ([2]; appl. rate 0.5): 100%
- % damage ([2]; appl. rate 1.0): 100%
- % damage ([3]; appl. rate 0.5): 100%
- % damage ([3]; appl. rate 1.0): 100%
- % damage ([4]; appl. rate 0.5): 100%
- % damage ([4]; appl. rate 1.0): 100%

SMILES: CCc1cccc(C)c1N(Cn1nc(C)cc1C)C(=O)CCl [Compound 40]
- % damage ([5]; 0.125 kg/ha): 90%
- % damage ([5]; 0.25 kg/ha): 100%
- % damage [6]: 80%
- % damage [7]: 30%
- % damage ([17]; 0.125 kg/ha): 100%
- % damage ([17]; 0.25 kg/ha): 100%
- % damage [8]: 0%
- % damage [9]: 100%
- % damage ([10]; one value printed for two rates (0.125 0.25 kg/ha)): 95%
- % damage ([11]; 0.125 kg/ha): 60%
- % damage ([11]; 0.25 kg/ha): 60%
- % damage ([12]; 1.0 kg/ha): 50%
- % damage ([13]; 1.0 kg/ha): 90%
- % damage ([14]; 1.0 kg/ha): 20%
- % damage ([15]; 1.0 kg/ha): 60%
- % damage ([16]; 1.0 kg/ha): 68%

SMILES: CCc1cccc(CC)c1N(COC)C(=O)CCl [bekannt, reference compound]
- % damage ([5]; 0.25 kg/ha): 68%
- % damage ([5]; 0.5 kg/ha): 81%
- % damage ([5]; 1.0 kg/ha): 88%
- % damage ([5]; 2.0 kg/ha): 92%
- % damage ([18]; 0.25 kg/ha): 92%
- % damage ([18]; 0.5 kg/ha): 95%
- % damage ([18]; 1.0 kg/ha): 100%
- % damage ([18]; 2.0 kg/ha): 100%
- % damage ([17]; 0.25 kg/ha): 65%
- % damage ([17]; 0.5 kg/ha): 70%
- % damage ([17]; 1.0 kg/ha): 78%
- % damage ([17]; 2.0 kg/ha): 100%
- % damage ([19]; 0.25 kg/ha): 45%
- % damage ([19]; 0.5 kg/ha): 75%
- % damage ([19]; 1.0 kg/ha): 90%
- % damage ([19]; 2.0 kg/ha): 95%
- % damage ([20]; 1.0 kg/ha): 20%
- % damage ([20]; 2.0 kg/ha): 30%
- % damage ([21]; 0.25 kg/ha): 100%
- % damage ([21]; 0.5 kg/ha): 100%
- % damage ([21]; 1.0 kg/ha): 100%
- % damage ([21]; 2.0 kg/ha): 100%
- % damage ([22]; 0.25 kg/ha): 30%
- % damage ([22]; 0.5 kg/ha): 45%
- % damage ([22]; 1.0 kg/ha): 92%
- % damage ([22]; 2.0 kg/ha): 100%
- % damage ([23]; 1.0 kg/ha): 10%
- % damage ([23]; 2.0 kg/ha): 70%
- % damage ([10]; 0.25 kg/ha): 50%
- % damage ([10]; 0.5 kg/ha): 73%
- % damage ([10]; 1.0 kg/ha): 90%
- % damage ([10]; 2.0 kg/ha): 90%
- % damage ([24]; 0.25 kg/ha): 0%
- % damage ([24]; 0.5 kg/ha): 0%
- % damage ([24]; 1.0 kg/ha): 0%
- % damage ([24]; 2.0 kg/ha): 0%
- % damage ([25]; 0.25 kg/ha): 0%
- % damage ([25]; 0.5 kg/ha): 6%
- % damage ([25]; 1.0 kg/ha): 20%
- % damage ([25]; 2.0 kg/ha): 45%

SMILES: Cc1cccc(C)c1N(Cn1ccnc1)C(=O)CCl
- % damage ([1]; appl. rate 1.0): 0%
- % damage ([2]; appl. rate 1.0): 20%
- % damage ([3]; appl. rate 1.0): 40%
- % damage ([4]; appl. rate 1.0): 20%

SMILES: CCc1cccc(CC)c1N(Cn1nc(C)cc1C)C(=O)CCl [Compound 41]
- % damage ([5]; 0.25 kg/ha): 73%
- % damage ([5]; 0.5 kg/ha): 97%
- % damage ([5]; 1.0 kg/ha): 100%
- % damage ([5]; 2.0 kg/ha): 100%
- % damage ([18]; 0.25 kg/ha): 90%
- % damage ([18]; 0.5 kg/ha): 92%
- % damage ([18]; 1.0 kg/ha): 100%
- % damage ([18]; 2.0 kg/ha): 100%
- % damage ([17]; 0.25 kg/ha): 100%
- % damage ([17]; 0.5 kg/ha): 100%
- % damage ([17]; 1.0 kg/ha): 100%
- % damage ([19]; 0.25 kg/ha): 95%
- % damage ([19]; 0.5 kg/ha): 100%
- % damage ([19]; 1.0 kg/ha): 100%
- % damage ([19]; 2.0 kg/ha): 100%
- % damage ([20]; 1.0 kg/ha): 50%
- % damage ([20]; 2.0 kg/ha): 90%
- % damage ([21]; 0.25 kg/ha): 95%
- % damage ([21]; 0.5 kg/ha): 95%
- % damage ([21]; 1.0 kg/ha): 95%
- % damage ([21]; 2.0 kg/ha): 95%
- % damage ([22]; 0.25 kg/ha): 85%
- % damage ([22]; 0.5 kg/ha): 85%
- % damage ([22]; 1.0 kg/ha): 100%
- % damage ([22]; 2.0 kg/ha): 100%
- % damage ([23]; 1.0 kg/ha): 45%
- % damage ([23]; 2.0 kg/ha): 90%
- % damage ([10]; 0.25 kg/ha): 70%
- % damage ([10]; 0.5 kg/ha): 90%
- % damage ([10]; 1.0 kg/ha): 98%
- % damage ([10]; 2.0 kg/ha): 100%
- % damage ([24]; 0.25 kg/ha): 0%
- % damage ([24]; 0.5 kg/ha): 0%
- % damage ([24]; 1.0 kg/ha): 0%
- % damage ([24]; 2.0 kg/ha): 0%
- % damage ([25]; 0.25 kg/ha): 0%
- % damage ([25]; 0.5 kg/ha): 8%
- % damage ([25]; 1.0 kg/ha): 8%
- % damage ([25]; 2.0 kg/ha): 10%
